Values joined by “and” are separate entries in the source; they are usually repeats but may differ in a detail not shown here. Identical values can stand only once.
Columns and labels:
FLUV A/WSN/33 = assay type: cell-based, influenza A/WSN/33
[1] = tested on: SARS-CoV-2 delta variant (lineage B.1.617.2); assay type: cell-based
[2] = tested on: SARS-CoV-2 Omicron variant (lineage B.A.1); assay type: cell-based
[3] = tested on: SARS-CoV-2 gamma variant, lineage P.1; assay type: cell-based

| SMILES | activity against FLUV after 7 passages with compound (FLUV A/WSN/33) | efficacy against SARS-CoV-2 delta variant [1] | efficacy against SARS-CoV-2 Omicron [2] | viral load eliminated compared to vehicle [3] | percentage reduction in infection (FLUV A/WSN/33) |
| --- | --- | --- | --- | --- | --- |
| CCOC(=O)C1=C[C@@H](OC(CC)CC)[C@H](NC(C)=O)[C@@H](N)C1 [Oseltamivir, reference compound] | lost activity by passage 7 | – | – | – | – |
| COc1c(CNC(=O)c2cc(C3CC3)nn2C)cccc1OC(F)(F)F [PAV-431] | – | clear trend | significant efficacy | ≥ 90% | – |
| COc1cccc(CNC(=O)c2cc(C3CC3)nn2C)c1OC [PAV-835] | retained the same activity against FLUV as it did against a naive strain | – | – | – | 98.9 percentage and 91.9 percentage |

From publication PMC11285769, “A pan-respiratory antiviral chemotype targeting a transient host multi-protein complex” (Open Biology, 2024)
